According to US20080166408A1, “Oral Dosage Form Comprising Rosiglitazone” (priority 2005, published 2008):

Test: pH dependent solubility of Compound A
Type: physicochemical
Settings: acidic conditions of the stomach (around pH 2) versus near neutral conditions of the lower intestine (around pH 7); Compound A and its salts or solvates, in particular the maleate salt

For `CN(CCOc1ccc(CC2SC(=O)NC2=O)cc1)c1ccccn1` (stereo not shown) [Compound A, 5-[4-[2-(N-methyl-N-(2 pyridyl)amino)ethoxy]benzyl]thiazolidine-2,4-dione], the pH dependent solubility was “more soluble in the acidic conditions of the stomach (around pH 2) than in the near neutral conditions of the lower intestine (around pH 7)”.
